Reference: article PMC9888480, “Carboranyl-1,8-naphthalimide intercalators induce lysosomal membrane permeabilization and ferroptosis in cancer cell lines” (Journal of Enzyme Inhibition and Medicinal Chemistry, 2023)

How the values were obtained:
Format in all cases: cell-based, human
HepG2 cells [1] = test: Reduced glutathione (GSH) level measurement (Thiolite Green); conditions: HepG2, 24 h, total IC50 concentration
Protocol: The HepG2 cells were seeded at a density of 2 × 10^5 cells/well onto 12-well plates and under the same environmental conditions as the above experiments. The cells were then treated with the tested compounds at the final concentration equal to the total IC50 values for 24 h. The cellular GSH level was measured by staining with the nonfluorescent Thiolite Green dye, which emits strong fluorescence after reaction with thiols ([…]) according to the manufacturer’s protocol (AAT Bioquest, Sunnyvale, CA, USA). After incubation with the compounds (34–5 µM, 35–4.5 µM, 36–4 µM, 37–4.5 µM) the cells were detached with trypsin (Corning®) and washed twice with 1 ml of DPBS (Capricorn). Subsequently, the cells were suspended in a staining solution (50 µM) and incubated at 37 °C in a 5% CO2 environment for 30 min. After staining, the fluorescence intensity was analysed using a FACSCalibur flow cytometer with excitation at 488 nm, and the data were analysed using the FlowJo software (Becton Dickinson).

HepG2 cells [2] = test: Intracellular Fe2+ level determination (FeRhoNox-1); conditions: HepG2, 24 h, total IC50 concentration
Protocol: The HepG2 cells were seeded at the density of 2 × 10^5 cells/well onto 12-well plates and cultured with supplemented EMEM at 37 °C under 5% CO2 saturation until 70–80% confluency was reached. […] Subsequently, the cells were detached with trypsin (Corning®), washed with 1 ml DPBS (Capricorn), and then resuspended in the growth medium with 5 µM FeRhoNox™-1 (Goryo Chemical) for 1 h. […] The cells were analysed after incubation with the dye with excitation at 488 nm using a FACSCalibur flow cytometer (Becton Dickinson), and the data were analysed using the FlowJo software (Becton Dickinson). To create a strong, single, positive red fluorescence signal, 3 mM N-acetylcysteine (2 h incubation; Sigma-Aldrich) was used.

HepG2 cells [3] = test: Lysosome status (acridine orange and Lysotracker Deep Red staining); conditions: HepG2, 3 h, total IC50 concentration (5, 4.5, 4, 4.5 µM)
Protocol: To analyse the condition of the lysosomes, the cells (2 × 10^5) were stained with the 100 nM LysoTracker™ Deep Red (Thermo Fisher Scientific) fluorescent dye for 30 min under growth conditions. The HepG2 and MRC-5 cells were treated with the tested compounds for 3 h.Final concentration of the compounds for HepG2 cells were as follows: 34–5 µM, 35–4.5 µM, 36–4 µM, 37–4.5 µM, whereas for MRC-5 were: 34–2.1 µM, 35–2 µM, 36–2.3 µM, 37–2.3 µM. Subsequently, the cells were trypsinized, rinsed with 1 ml of DPBS (Capricorn), and then incubated with the dye. Then, cytometric analysis of the stained cells was performed at an excitation/emission wavelength of 647/668 nm.
Lysosomal permeabilization was tested using the acridine orange (AO) dye. After treatment with the compounds, the cell pellets were suspended in 500 µl of DBPS containing AO (Sigma-Aldrich) at the final concentration of 0.5 µg/ml. […] Fluorescence intensity was analysed at an excitation wavelength of 488 nm, and two emission spectra were acquired at 505–550 and 600–650 nm for green and red fluorescence, respectively. The cells were analysed after incubation with the dye, with excitation at 488 nm, using a FACSCalibur flow cytometer (Becton Dickinson), and the data were analysed using the FlowJo software (Becton Dickinson). […]

HepG2 cells [4] = test: Cell cycle analysis by flow cytometry (PI); conditions: HepG2, 24 h, total IC50 concentration; 5% in untreated cells
Protocol: The DNA content was determined using flow cytometry with PI (Sigma-Aldrich, Steinheim, Germany) staining. After incubation, the cells were trypsinized and washed twice with 1 ml of PBS (Capricorn). In the next step, the cells were fixed with an ice-cold 80% ethanol. After incubation for 1 h at 4 °C, the fixed cells were washed twice with PBS and suspended in the staining PI/RNAse A/PBS buffer (PI 50 µg/ml, RNAse A 100 µg/ml) for 30 min at 37 °C in the dark. PI (Sigma) fluorescence was measured using a FACSCalibur (Becton Dickinson), and data were analysed using the FlowJo software (Becton Dickinson).

Substance | GSH level, green fluorescence change compared to control (HepG2 cells [1]) | intracellular Fe2+ level (red fluorescence intensity) (HepG2 cells [2]) | AO green/red ratio (LMP) (HepG2 cells [3]) | accumulation of cells in G2M phase (HepG2 cells [4]) [%]
4-[(6-[(1,2-Dicarba-closo-dodecaborane-1-yl)ethylamino]hexyl)amino]-3-nitro-N-[2-(N-pyrrolidinyl)ethyl]-1,8-naphthalimide [Compound 36] | not statistically significant | lowest | – | –
4-[(6-[(1,2-Dicarba-closo-dodecaborane-1-yl)ethylamino]hexyl)amino]-N-[2-(dimethylamino)ethyl]-3-nitro-1,8-naphthalimide [Compound 34] | – | – | approximately twofold | –
4-[(6-[(1,7-Dicarba-closo-dodecaborane-1-yl)ethylamino]hexyl)amino]-3-nitro-N-[2-(N-pyrrolidinyl)ethyl]-1,8-naphthalimide [Compound 37] | – | – | – | 15
4-[(6-[(1,7-Dicarba-closo-dodecaborane-1-yl)ethylamino]hexyl)amino]-N-[2-(dimethylamino)ethyl]-3-nitro-1,8-naphthalimide [Compound 35] | 70% | highest ferrous level | approximately twofold | 15
